{"source": "ChEMBL document CHEMBL1201862", "about": "“PubChem BioAssay data set” (2004)", "key": {"[1]": {"assay": "Vero cell cytotoxicity, dose response, cytotoxicity control for Vif-APOBEC3G degradation inhibitor project, Vero cells (AID 1117358)", "assay_type": "functional", "conditions": "Human immunodeficiency virus 1, Vero"}, "[2]": {"molecular_target": "T1, Ubiquitin-conjugating enzyme E2 N (Homo sapiens, UniProt P61088)", "T1 sequence (P61088 whole entry)": "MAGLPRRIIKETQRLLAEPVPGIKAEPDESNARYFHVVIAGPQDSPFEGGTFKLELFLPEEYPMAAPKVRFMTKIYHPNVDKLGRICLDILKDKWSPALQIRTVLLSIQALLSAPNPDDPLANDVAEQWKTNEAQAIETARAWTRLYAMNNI", "assay_type": "functional"}, "[3]": {"molecular_target": "T2, Replicative DNA helicase DnaB (Mycobacterium tuberculosis, UniProt P9WMR3)", "T2 sequence (P9WMR3 whole entry)": "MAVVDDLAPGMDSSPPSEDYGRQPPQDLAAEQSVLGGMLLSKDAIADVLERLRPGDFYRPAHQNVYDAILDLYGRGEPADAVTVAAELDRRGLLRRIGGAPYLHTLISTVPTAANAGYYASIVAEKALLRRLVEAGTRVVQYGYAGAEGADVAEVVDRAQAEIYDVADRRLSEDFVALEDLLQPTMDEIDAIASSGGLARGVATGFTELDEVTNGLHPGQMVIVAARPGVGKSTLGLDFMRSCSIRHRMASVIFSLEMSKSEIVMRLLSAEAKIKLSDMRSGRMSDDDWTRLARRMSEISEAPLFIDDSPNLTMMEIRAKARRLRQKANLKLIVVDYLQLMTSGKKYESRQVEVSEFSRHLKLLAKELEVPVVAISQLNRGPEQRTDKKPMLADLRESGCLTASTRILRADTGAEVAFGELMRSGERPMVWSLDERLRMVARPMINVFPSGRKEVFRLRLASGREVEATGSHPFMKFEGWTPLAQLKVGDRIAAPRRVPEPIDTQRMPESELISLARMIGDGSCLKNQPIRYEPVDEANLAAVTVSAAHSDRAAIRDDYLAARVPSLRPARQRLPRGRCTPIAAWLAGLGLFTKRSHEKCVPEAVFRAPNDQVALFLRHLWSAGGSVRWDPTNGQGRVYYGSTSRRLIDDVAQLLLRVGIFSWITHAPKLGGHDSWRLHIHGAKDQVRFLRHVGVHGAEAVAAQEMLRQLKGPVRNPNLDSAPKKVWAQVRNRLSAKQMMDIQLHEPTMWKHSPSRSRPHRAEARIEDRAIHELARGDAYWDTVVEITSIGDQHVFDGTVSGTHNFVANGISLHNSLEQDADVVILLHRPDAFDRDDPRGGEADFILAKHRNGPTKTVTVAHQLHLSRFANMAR", "assay": "DnaB intein splicing inhibitors, dose response, biochemical, cell-free fluorescence (AID 449749)", "assay_type": "functional"}, "Protein RecA": {"molecular_target": "T3, Protein RecA (Mycobacterium tuberculosis, UniProt P9WHJ3)", "T3 sequence (P9WHJ3 whole entry)": "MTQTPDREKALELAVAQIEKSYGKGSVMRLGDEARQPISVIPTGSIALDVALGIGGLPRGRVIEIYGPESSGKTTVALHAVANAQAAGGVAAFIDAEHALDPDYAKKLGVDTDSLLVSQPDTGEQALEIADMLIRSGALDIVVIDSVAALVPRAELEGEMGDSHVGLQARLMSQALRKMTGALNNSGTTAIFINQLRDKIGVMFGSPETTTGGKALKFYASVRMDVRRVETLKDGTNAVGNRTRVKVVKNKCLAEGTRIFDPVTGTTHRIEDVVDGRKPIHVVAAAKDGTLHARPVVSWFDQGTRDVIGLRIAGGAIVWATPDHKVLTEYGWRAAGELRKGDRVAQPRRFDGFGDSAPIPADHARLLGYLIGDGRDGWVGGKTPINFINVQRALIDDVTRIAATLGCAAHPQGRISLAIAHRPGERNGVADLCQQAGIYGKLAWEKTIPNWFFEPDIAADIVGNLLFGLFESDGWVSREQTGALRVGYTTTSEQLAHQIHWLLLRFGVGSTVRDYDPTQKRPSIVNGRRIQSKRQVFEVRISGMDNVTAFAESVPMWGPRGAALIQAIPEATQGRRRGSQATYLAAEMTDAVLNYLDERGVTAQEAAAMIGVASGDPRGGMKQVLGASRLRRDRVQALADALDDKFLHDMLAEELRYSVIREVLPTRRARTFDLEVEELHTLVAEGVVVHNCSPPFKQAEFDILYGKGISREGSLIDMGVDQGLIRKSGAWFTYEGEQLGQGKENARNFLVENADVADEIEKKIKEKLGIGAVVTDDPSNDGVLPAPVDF", "assay": "Fluorescence Cell-Free Homogeneous Dose Retest to Identify Inhibitors of RecA-Intein Splicing Activity. [Related pubchem assays (depositor defined):AID2097, AID2223, AID489010, AID492950]", "assay_type": "functional"}, "Leucine aminopeptidase": {"molecular_target": "T4, Leucine aminopeptidase (Plasmodium falciparum 3D7, UniProt Q8IL11)", "T4 sequence (Q8IL11 whole entry)": "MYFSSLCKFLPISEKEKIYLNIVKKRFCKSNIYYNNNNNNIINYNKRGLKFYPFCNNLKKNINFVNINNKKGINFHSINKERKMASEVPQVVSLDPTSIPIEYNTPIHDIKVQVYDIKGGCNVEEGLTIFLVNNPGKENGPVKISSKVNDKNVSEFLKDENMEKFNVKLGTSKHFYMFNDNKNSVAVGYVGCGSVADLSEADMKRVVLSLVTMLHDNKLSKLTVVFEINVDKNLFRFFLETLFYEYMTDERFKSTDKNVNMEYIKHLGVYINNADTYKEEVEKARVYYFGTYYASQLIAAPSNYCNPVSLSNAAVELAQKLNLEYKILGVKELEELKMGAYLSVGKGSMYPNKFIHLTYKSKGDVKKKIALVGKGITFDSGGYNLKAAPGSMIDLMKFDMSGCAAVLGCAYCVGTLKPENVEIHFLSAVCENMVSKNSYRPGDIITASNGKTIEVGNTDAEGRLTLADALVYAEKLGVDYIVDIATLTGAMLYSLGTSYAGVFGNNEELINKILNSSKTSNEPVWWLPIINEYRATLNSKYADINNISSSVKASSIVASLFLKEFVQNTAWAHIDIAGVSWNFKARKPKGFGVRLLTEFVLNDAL", "assay": "P. falciparum M17LAP inhibitors, primary screen, biochemical, fluorogenic H-Leu-NHMec substrate, 1536-well (AID 1619)", "assay_type": "functional"}, "[4]": {"assay": "inhibitors of Vif binding to APOBEC3G peptide, primary screen, biochemical, TR-FRET, GST-Vif 1-94, biotin-A3G peptide, dose response retest (AID 1117319);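 further: TR-FRET signal of purified GST-Vif binding a biotinylated A3G peptide; inhibitors lower the FRET signal by blocking Vif and A3G binding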", "assay_type": "functional"}, "Estrogen receptor beta": {"molecular_target": "Estrogen receptor beta (Homo sapiens, UniProt Q92731)", "sequence (Q92731 whole entry)": "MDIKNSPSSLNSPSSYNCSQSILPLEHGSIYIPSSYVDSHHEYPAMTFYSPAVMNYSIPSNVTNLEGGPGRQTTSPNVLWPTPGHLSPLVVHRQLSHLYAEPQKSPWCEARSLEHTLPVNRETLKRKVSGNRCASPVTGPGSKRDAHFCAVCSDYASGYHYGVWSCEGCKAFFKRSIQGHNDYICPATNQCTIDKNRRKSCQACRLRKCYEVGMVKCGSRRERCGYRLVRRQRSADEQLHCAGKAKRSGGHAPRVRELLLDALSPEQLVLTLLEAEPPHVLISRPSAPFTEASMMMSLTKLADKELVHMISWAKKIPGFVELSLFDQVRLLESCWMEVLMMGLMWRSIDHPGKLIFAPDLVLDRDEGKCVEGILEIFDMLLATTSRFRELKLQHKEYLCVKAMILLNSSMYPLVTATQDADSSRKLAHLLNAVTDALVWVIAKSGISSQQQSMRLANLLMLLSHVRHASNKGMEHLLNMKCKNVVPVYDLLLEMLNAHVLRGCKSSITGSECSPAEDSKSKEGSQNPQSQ", "assay": "ERβ–SRC-3 coactivator interaction inhibitors, confirmation, orthogonal assay, biochemical, ELISA, streptavidin-HRP readout (AID 1060)"}, "Cytochrome P450 3A4": {"molecular_target": "Cytochrome P450 3A4 (Homo sapiens, UniProt P08684)", "sequence (P08684 whole entry)": "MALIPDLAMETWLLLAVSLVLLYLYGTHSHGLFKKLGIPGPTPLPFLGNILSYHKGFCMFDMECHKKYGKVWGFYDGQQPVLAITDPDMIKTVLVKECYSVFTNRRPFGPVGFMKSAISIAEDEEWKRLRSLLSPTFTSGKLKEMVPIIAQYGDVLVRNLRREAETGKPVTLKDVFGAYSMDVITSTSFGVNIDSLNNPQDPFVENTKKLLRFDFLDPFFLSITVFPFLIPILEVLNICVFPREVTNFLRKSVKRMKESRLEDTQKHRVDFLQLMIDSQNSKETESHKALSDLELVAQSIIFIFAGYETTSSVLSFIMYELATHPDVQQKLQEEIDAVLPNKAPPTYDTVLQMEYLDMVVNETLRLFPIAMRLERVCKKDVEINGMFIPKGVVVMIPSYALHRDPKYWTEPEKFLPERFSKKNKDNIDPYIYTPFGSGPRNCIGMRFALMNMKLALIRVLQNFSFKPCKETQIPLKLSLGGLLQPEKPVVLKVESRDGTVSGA", "conditions": "Potency"}, "[5]": {"assay": "P. falciparum Dd2 growth inhibitors, dose response, SYBR Green, cherry-picked samples (AID 1159567)", "assay_type": "functional, cell-based"}, "[6]": {"assay": "HepG2 cell cytotoxicity, dose response, cytotoxicity control, cherry-picked samples (AID 1159577)", "assay_type": "functional, cell-based"}, "[7]": {"assay": "inhibitors of PGC1a acetylation in cells, dose response, cell-based, cherry-picked samples (AID 720514);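 further: potency may reflect raised or lowered acetylation signal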", "assay_type": "functional"}, "[8]": {"assay": "NIH:OVCAR-3 ovarian cancer cell cytotoxicity, dose response, PAX8 inhibitor project, plate reader, dry powder samples (AID 743044)", "assay_type": "functional, cell-based"}, "[9]": {"assay": "cytotoxicity in OVCAR8 ovarian cancer cells, dose response, PAX8 project, cell-based, plate reader, dry powder samples (AID 743197)", "assay_type": "functional", "conditions": "OVCAR-8"}, "Paired box protein Pax-8": {"molecular_target": "Paired box protein Pax-8 (Homo sapiens, UniProt Q06710)", "sequence (Q06710 whole entry)": "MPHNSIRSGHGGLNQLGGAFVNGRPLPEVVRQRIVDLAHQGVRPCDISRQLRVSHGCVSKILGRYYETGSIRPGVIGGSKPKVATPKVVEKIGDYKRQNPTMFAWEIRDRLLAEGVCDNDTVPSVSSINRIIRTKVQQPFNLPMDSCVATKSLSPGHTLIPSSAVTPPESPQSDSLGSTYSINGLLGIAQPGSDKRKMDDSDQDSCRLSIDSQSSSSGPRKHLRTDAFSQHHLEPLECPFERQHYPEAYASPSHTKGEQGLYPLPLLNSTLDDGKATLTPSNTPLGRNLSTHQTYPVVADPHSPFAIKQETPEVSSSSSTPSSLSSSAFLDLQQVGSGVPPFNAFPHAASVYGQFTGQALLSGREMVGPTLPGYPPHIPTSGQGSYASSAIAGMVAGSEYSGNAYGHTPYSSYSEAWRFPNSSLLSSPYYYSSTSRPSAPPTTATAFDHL", "assay": "inhibitors of PAX8-driven TPO luciferase reporter, dose response, RMG-I cells, cherry-pick (AID 687027);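 further: luciferase reporter driven by Pax8 target thyroperoxidase promoter measured by SteadyGlo luminescence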", "assay_type": "functional, cell-based"}, "[10]": {"assay": "cytotoxicity in HEK-293T cells, dose response, cytotoxicity control for BCR NF-kB inhibitor project, luminescence, B-cell screen hits (AID 489021);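 further: cells exposed to compound for about 14 hours before viability readout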", "assay_type": "functional, cell-based"}}, "note": "Active and inactive are the calls of the source."}
{"compound": "CN(C)C(=O)c1ccc(COc2ccccc2Br)o1", "values": [{"measurement": "CC50", "setting": "[1]", "result": "> 40 µM (active)"}]}
{"compound": "Cc1sc2ncnc(N)c2c1C", "values": [{"measurement": "IC50", "setting": "[2]", "result": "> 20 µM (inactive)"}]}
{"compound": "Cc1cc(-c2[nH]nc3c2C(c2cccc(O)c2)C(C#N)=C(N)O3)c(C)s1", "note": "(configuration not stated)", "values": [{"measurement": "AC50", "setting": "[3]", "result": "4.58 µM (active)"}, {"measurement": "EC50", "setting": "Protein RecA", "result": "2.65 µM (active)"}, {"measurement": "IC50", "setting": "Leucine aminopeptidase", "result": "52.8 µM (active)"}, {"measurement": "IC50", "setting": "[4]", "result": "> 100 µM (active)"}]}
{"compound": "O=C(Nc1ccc2c(c1)OCO2)c1cc2ncc(Br)cn2n1", "values": [{"measurement": "IC50", "setting": "Estrogen receptor beta", "result": "< 0.023 µM (not active)"}]}
{"compound": "COC(=O)c1c(C)cc(OC)cc1O", "values": [{"measurement": "AC50", "setting": "Cytochrome P450 3A4", "result": "39.8 µM (inconclusive)"}]}
{"compound": "CCC(=O)NC(C)c1cc(Cl)c2ccccc2c1O", "note": "(configuration not stated)", "values": [{"measurement": "IC50", "setting": "[2]", "result": "> 20 µM (inactive)"}]}
{"compound": "COc1ccnc2c1c(=O)n(Cc1ccc(F)cc1)c(=O)n2C", "values": [{"measurement": "IC50", "setting": "[2]", "result": "> 20 µM (inactive)"}]}
{"compound": "OC[C@H]1[C@@H](c2ccc(C#CC3CCCC3)cc2)[C@@H]2CN(CCC(F)(F)F)CCCCN12", "values": [{"measurement": "AC50", "setting": "[5]", "result": "0.346 µM (active)"}, {"measurement": "AC50", "setting": "[6]", "result": "10.5 µM (active)"}, {"measurement": "AC50", "setting": "[7]", "result": "11 µM (active)"}]}
{"compound": "O=C(Nc1ccc(C(F)(F)F)cc1)Nc1ccc2c(c1)[C@H]1C[C@@H](CC(=O)N3CCc4ccccc4C3)O[C@H](CO)[C@H]1O2", "values": [{"measurement": "AC50", "setting": "[8]", "result": "23.6 µM (active)"}, {"measurement": "AC50", "setting": "[9]", "result": "54 µM (active)"}, {"measurement": "AC50", "setting": "Paired box protein Pax-8", "result": "4.1 µM (active)"}]}
{"compound": "CCc1cccc(NC(=O)c2ccc(CNc3c(N4CCCC4)c(=O)c3=O)cc2)c1", "values": [{"measurement": "IC50", "setting": "[10]", "result": "> 80 µM (inactive)"}]}
